Test results published in patent US9458507B1, “Antipsychotic treatment based on SNP genotype” (Vanda Pharmaceuticals, Inc., priority 2007, dated 2016).

Assays:
[1] = test system: patients with diagnoses of schizophrenia; assay: randomized, double-blind, placebo- and ziprasidone-controlled, 28-day study of iloperidone with whole genome association study; change in PANSS-T by SNP genotype; assay type: in vivo, human; details: for mean of change in PANSS-T: iloperidone group, MMRM analysis; for Odds Ratio of Improvement ≧ 20% in PANSS-T: iloperidone-treated patients, LOCF data
Description: The clinical trial evaluated the efficacy of iloperidone in treating patients with diagnosed schizophrenia.
Patients 18 to 65 years of age with diagnoses of schizophrenia according to the Diagnostic and Statistical Manual of Mental Disorders, 4th Edition were eligible to participate in a randomized, double-blind, placebo- and ziprasidone-controlled, 28-day study of the efficacy and safety of iloperidone. Patients were randomly assigned to iloperidone 12 mg twice a day, ziprasidone 80 mg twice a day (active control), or placebo. The primary efficacy variable was change from baseline to the last scheduled observation in Positive and Negative Syndrome Scale total score (PANSS-T) using the data from the short-term, double-blind phase. A secondary objective was to identify genetic markers predictive of response to iloperidone.
Blood samples were collected, and DNA was extracted from 432 of 457 patients who consented to the optional WGAS, including 218 patients administered iloperidone and 102 administered placebo.
To independently discover and confirm biomarkers of iloperidone efficacy, patients administered iloperidone were randomly separated and genotyped for the WGAS into two groups (Group 1 (discovery phase) and Group 2 (confirmatory phase)) of equal size. PROC SURVEYSELECT (SAS Institute, Cary, N.C.) was used to stratify the groups to have approximately equal numbers of patients of each race and each sex.
In Group 1, each SNP was tested for potential association between genotype and change in PANSS-T for patients in the low 30% and the high 30% extremes of the distribution of Day 28 last-observation-carried-forward (LOCF) data. Analysis was performed using a truncated nonparametric measure analysis of variance (ANOVA), based on the Kruskal-Wallis test, with genotypes as the grouping variables. Based on a significant omnibus test and ad hoc contrasts, the results that produced the most parsimonious genetic model (e.g., homozygous for one allele vs. all other genotypes (e.g., AA vs. AB and BB), heterozygous vs. homozygous genotypes (AB vs. AA and BB)) dictated the genetic model that was tested in the confirmatory phase. For ease of global description, given that each SNP might have a different parsimonious model, the genotypes of all SNPs associated with positive iloperidone response were referred to as genotype class C1, and the remaining genotypes for that SNP were referred to as genotype class C2. If no parsimonious genetic model was obtained for a SNP, it was not tested further. Only the subset of 100 SNPs with the lowest P values for the contrasts that defined C1 and C2 was tested in the confirmatory phase.
Two separate methods were applied. LOCF data for PANSS-T at Day 28 were used in a one-way ANOVA of each SNP, testing each genotype class against the class of the other two genotypes combined. Results from the ANOVA dictated the parsimonious genetic model to be used for additional testing. Mixed Model Repeated Measures (MMRM) analysis was subsequently conducted using the parsimonious genetic model of each SNP in the MMRM model, as used for the analysis of the clinical trial results. In the MMRM analysis, only the best genetic model of each SNP, as determined in the ANOVA LOCF data analysis, was used.
Three analyses were performed. Analysis 1 was a two-phase approach in which DNA samples were separated into two groups. The first group consisted of 50% of the samples for a discovery phase in which only the top 30% and the bottom 30% of the change in PANSS-T (LOCF data) were used, and the second was a hold-out group consisting of the other 50% for a confirmatory phase. Only the 100 SNPs with the lowest P values in the discovery phase were subsequently tested.
Analysis 2 was an ANOVA of LOCF data for all iloperidone-treated patients in a single-phase approach.
Analysis 3 was an MMRM analysis of all patients using the most parsimonious genetic model of each SNP. […]

5-HT, receptor = 5-HT, receptor (Homo sapiens, UniProt P34969); details: cited from earlier work
Chain of 5-HT, receptor (P34969 whole entry): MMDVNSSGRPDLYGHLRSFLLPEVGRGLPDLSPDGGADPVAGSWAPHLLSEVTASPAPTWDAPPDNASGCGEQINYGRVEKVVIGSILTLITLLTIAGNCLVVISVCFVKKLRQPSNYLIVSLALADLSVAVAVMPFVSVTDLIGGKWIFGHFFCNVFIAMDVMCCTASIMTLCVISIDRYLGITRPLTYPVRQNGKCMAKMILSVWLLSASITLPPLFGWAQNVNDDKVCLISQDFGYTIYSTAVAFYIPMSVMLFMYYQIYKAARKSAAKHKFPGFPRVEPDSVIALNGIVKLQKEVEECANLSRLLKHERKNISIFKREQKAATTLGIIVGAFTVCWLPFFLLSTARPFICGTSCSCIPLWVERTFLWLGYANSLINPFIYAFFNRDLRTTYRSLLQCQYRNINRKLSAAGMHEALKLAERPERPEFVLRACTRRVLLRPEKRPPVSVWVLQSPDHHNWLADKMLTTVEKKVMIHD

## COc1cc(C(C)=O)ccc1OCCCN1CCC(c2noc3cc(F)ccc23)CC1 [iloperidone, 1-[4-[3-[4-(6-flouro-1,2-benzisoxazol-3-yl)-1-piperidinyl]propoxy]-3-methoxyphenyl] ethanone]
[1]; rs875326 (TNR) genotype non-AG (homozygotes, highest response class)
  mean of change in PANSS-T: −16.39 (±4.35)
[1]; rs875326 (TNR) non-AG vs AG
  Odds Ratio of Improvement ≧ 20% in PANSS-T: 3.57
[1]; rs2513265 (GRIA4) non-TT vs TT
  Odds Ratio of Improvement ≧ 20% in PANSS-T: 2.43
[1]; rs4528226 (NUDT9P1) GT vs non-GT
  Odds Ratio of Improvement ≧ 20% in PANSS-T: 3.00
[1]; rs4528226 (NUDT9P1) genotype GT (highest response class)
  mean of change in PANSS-T: −18.73 (±3.99)
[1]; rs7837682 (GRFA2) AA vs non-AA
  Odds Ratio of Improvement ≧ 20% in PANSS-T: 2.95
[1]; rs7837682 (GRFA2) genotype AA (highest response class)
  mean of change in PANSS-T: −15.95 (±4.23)
[1]; rs9643483 (XKR4) non-GG vs GG
  Odds Ratio of Improvement ≧ 20% in PANSS-T: 3.42
[1]; rs11851892 (NPAS3) non-GG vs GG
  Odds Ratio of Improvement ≧ 20% in PANSS-T: 2.74
[1]; rs11851892 non-GG genotype vs all iloperidone-treated patients
  improvement in PANSS-T greater than the mean response of all iloperidone-treated patients: 68%
5-HT, receptor
  affinity for the 5-HT, receptor: high affinity
